Structures can show the parent of a compound that is named as a salt. Activity calls are given as the source filed them.
Legend:
HeLa = assay: ATP-based viability loss in HeLa cells – cell-based, CellTiter-Glo luminescence, cherry-pick samples, cytotoxicity control for MITF activator project, dose response (AID 540259); assay type: functional; conditions: Homo sapiens
[1] = molecular target: T1, Zinc finger protein mex-5 (Caenorhabditis elegans, UniProt Q9XUB2); assay: potency of MEX-5 RNA-binding blockers – biochemical, C. elegans, fluorescence polarization, dose response (AID 1960)
T1 sequence (Q9XUB2 whole entry): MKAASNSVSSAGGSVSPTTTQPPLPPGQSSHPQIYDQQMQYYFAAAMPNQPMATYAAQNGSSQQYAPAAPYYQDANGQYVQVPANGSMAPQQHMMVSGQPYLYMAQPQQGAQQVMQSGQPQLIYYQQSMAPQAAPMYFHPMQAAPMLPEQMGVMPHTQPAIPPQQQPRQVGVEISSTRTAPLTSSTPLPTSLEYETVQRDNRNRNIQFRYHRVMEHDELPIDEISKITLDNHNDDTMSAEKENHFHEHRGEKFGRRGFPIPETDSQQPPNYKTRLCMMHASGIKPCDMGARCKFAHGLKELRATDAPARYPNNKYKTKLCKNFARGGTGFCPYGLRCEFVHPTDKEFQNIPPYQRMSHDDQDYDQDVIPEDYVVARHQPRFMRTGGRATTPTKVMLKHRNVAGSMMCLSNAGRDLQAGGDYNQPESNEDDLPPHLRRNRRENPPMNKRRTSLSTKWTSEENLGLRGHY

[2] = molecular target: T2, RNA-binding protein pos-1 (Caenorhabditis elegans, UniProt G5EF15); assay: disruptors of C. elegans POS-1 RNA interaction – biochemical, fluorescence polarization, dose response (AID 1964);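 note: purified POS-1 fused to maltose binding protein made in E. coli; potency of compounds blocking POS-1 binding to fluorescent RNA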
T2 sequence (G5EF15 whole entry): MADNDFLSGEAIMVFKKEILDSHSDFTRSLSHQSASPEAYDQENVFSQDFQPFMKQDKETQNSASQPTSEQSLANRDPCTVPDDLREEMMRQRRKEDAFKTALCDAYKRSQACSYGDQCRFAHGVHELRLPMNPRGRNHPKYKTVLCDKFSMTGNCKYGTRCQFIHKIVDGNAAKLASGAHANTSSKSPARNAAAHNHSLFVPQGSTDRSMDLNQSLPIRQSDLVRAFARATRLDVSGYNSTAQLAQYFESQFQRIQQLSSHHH

[3] = molecular target: T3, Carboxy-terminal domain RNA polymerase II polypeptide A small phosphatase 1 (Homo sapiens, UniProt Q9GZU7); assay: CTDSP1 inhibitors, concentration-response, biochemical, absorbance readout, ultra-high-throughput screen actives (AID 540297); assay type: functional
T3 sequence (Q9GZU7 whole entry): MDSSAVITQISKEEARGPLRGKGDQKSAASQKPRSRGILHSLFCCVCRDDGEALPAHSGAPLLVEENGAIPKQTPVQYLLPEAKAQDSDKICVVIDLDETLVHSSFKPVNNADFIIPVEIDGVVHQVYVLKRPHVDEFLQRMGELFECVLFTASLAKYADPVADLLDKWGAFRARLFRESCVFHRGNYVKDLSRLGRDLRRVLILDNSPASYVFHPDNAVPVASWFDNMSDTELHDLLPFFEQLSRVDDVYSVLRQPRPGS

[4] = molecular target: DNA dC->dU-editing enzyme APOBEC-3G (Homo sapiens, UniProt Q9HC16); assay: Dose Response confirmation of small molecule APOBEC3G DNA Deaminase Inhibitors via a fluorescence-based single-stranded DNA deaminase assay. [Related pubchem assays (depositor defined):AID493012, AID493028]; assay type: functional
[5] = molecular target: Induced myeloid leukemia cell differentiation protein Mcl-1 (Homo sapiens, UniProt Q07820); assay type: functional
H4 = assay: Luminescence Cell-Based Dose Response HTS to Identify Activators of 5'UTR Stem-Loop Driven Prion Protein mRNA Translation in H4 Neuroglioblastoma Cells. [Related pubchem assays: 1829 (Project Summary), 1814 (Primary HTS)]; assay type: functional; conditions: Homo sapiens
[6] = Luminescence Cell-Based Dose Response HTS to Identify Activators of Luciferase Translation or Activity in H4 […] Cells. [Related pubchem assays: 1829 (Project Summary), 1814 (Primary HTS)]; assay type: functional
[7] = general mammalian cell viability loss – inhibitor set, cherry-pick, set 2, cytotoxicity control for miR-122 modulator project, dose response (AID 720697); assay type: functional, cell-based
Fatty acid synthase [8] = molecular target: T4, Fatty acid synthase (Homo sapiens, UniProt P49327); assay: inhibition of human FAS-TE enzyme activity – biochemical, kinetic fluorescence intensity, dose response (AID 624326); assay type: functional;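 note: rate of fluorescence rise from hydrolysis of a fluorogenic O-methyl fluorescein ester substrate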
Fatty acid synthase [9] = molecular target: T4, Fatty acid synthase; assay: inhibition of human FAS-TE enzyme activity – biochemical, endpoint fluorescence intensity, uHTS hits, dose response (AID 624327); assay type: functional;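 note: fluorescence from hydrolysis of an O-methyl fluorescein acyl ester substrate by the enzyme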
[10] = molecular target: T5, High affinity choline transporter 1 (Homo sapiens, UniProt Q9GZV3); assay: human choline transporter blockers, potency – cell-based, 5-point CRC, membrane potential dye, dose response (AID 504840); assay type: functional
T5 sequence (Q9GZV3 whole entry): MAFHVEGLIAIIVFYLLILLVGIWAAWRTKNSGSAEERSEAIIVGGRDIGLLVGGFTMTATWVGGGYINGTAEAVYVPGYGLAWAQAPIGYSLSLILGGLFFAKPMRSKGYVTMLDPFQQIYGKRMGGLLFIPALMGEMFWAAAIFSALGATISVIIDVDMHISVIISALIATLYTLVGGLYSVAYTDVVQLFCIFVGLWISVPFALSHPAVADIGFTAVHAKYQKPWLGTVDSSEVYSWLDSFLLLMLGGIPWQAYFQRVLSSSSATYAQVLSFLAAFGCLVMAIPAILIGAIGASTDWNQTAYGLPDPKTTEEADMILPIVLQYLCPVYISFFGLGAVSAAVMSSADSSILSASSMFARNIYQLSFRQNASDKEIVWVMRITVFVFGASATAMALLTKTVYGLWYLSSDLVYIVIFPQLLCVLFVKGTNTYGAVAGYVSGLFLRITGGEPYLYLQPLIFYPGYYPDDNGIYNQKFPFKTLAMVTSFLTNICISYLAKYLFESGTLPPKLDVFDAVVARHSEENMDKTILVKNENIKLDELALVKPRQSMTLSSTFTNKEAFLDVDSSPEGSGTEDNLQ

[11] = viability of uninfected HEp-2 cells – cell-based, HTS, cytotoxicity control for RSV inhibitor project, dose response (AID 2410); assay type: functional; conditions: human respiratory syncytial virus
Paired box protein Pax-8 = Paired box protein Pax-8 (Homo sapiens, UniProt Q06710); assay: PAX8 transcriptional activity inhibition in RMG-I – RMG-I cells, luciferase, cherry-pick, dose response (AID 687027); assay type: functional, cell-based;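 note: luciferase reporter driven by Pax8 target thyroperoxidase promoter measured by SteadyGlo luminescence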
[12] = OVCAR8 cell viability loss – plate reader, dry powder samples, PAX8 project, dose response (AID 743197); assay type: functional, cell-based; conditions: OVCAR-8
[13] = molecular target: T6, DNA repair protein RAD52 homolog (Homo sapiens, UniProt P43351); assay type: functional, biochemical
T6 sequence (P43351 whole entry): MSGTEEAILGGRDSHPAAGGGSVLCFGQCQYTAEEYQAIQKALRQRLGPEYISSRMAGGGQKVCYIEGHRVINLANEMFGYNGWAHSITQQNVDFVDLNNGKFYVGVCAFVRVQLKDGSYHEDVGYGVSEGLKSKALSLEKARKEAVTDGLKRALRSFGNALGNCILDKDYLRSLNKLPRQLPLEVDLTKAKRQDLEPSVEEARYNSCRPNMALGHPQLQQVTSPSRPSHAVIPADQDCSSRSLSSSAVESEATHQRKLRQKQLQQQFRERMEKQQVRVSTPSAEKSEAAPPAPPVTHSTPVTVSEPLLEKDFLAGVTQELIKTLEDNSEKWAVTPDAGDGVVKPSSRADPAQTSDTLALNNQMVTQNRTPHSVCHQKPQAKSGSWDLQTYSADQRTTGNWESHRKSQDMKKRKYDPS

[14] = molecular target: T7, Ubiquitin-conjugating enzyme E2 N (Homo sapiens, UniProt P61088); assay type: functional;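 note: Dose-response confirmation in a TR-FRET assay detecting UBC13-driven polyubiquitin chain formation, inhibition measured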
T7 sequence (P61088 whole entry): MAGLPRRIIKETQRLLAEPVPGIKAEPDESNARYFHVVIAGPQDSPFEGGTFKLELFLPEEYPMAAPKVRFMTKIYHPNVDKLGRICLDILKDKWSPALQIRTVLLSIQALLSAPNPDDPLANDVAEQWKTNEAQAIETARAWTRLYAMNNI

[15] = molecular target: T8, Polyadenylate-binding protein 1 (Homo sapiens, UniProt P11940); assay: MLLE binding blockers, Cy5 peptide tracer – biochemical, fluorescence polarization, Cy5-PAM2 peptide, secondary, miRNA deadenylation inhibitor project, dose response (AID 602260); assay type: functional; conditions: read-out: IC50_Mean
Vero = assay: cells; assay type: functional; conditions: Chlorocebus sabaeus
[16] = molecular target: T8, Polyadenylate-binding protein 1; assay: MLLE domain peptide-binding blockers, IC50 – biochemical, fluorescence polarization, FITC-PAM2 peptide, dose response (AID 602259); assay type: functional; conditions: read-out: IC50_Mean
HEK293 = assay: EBV LMP1 TES2 canonical NF-kB signalling blockers – cell-based, HEK293, luciferase, cherry-pick, dose response (AID 588343); assay type: functional; conditions: Homo sapiens
[17] = tested on: Streptococcus sp. 'group A'; assay: Streptococcus pyogenes SK(-)GAS viability under kanamycin – luminescence, BacTiterGlo, confirmation, counter-screen for streptokinase expression inhibitor project, dose response (AID 1900); assay type: functional, organism-based
Streptococcus = assay: GAS UMAA2166 growth inhibition – luminescence, BacTiterGlo, counter-screen for streptokinase expression inhibitor project, dose response (AID 1915); assay type: functional, organism-based;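 note: potency for reduction of bacterial viability or growth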

T4 sequence (P49327 whole entry): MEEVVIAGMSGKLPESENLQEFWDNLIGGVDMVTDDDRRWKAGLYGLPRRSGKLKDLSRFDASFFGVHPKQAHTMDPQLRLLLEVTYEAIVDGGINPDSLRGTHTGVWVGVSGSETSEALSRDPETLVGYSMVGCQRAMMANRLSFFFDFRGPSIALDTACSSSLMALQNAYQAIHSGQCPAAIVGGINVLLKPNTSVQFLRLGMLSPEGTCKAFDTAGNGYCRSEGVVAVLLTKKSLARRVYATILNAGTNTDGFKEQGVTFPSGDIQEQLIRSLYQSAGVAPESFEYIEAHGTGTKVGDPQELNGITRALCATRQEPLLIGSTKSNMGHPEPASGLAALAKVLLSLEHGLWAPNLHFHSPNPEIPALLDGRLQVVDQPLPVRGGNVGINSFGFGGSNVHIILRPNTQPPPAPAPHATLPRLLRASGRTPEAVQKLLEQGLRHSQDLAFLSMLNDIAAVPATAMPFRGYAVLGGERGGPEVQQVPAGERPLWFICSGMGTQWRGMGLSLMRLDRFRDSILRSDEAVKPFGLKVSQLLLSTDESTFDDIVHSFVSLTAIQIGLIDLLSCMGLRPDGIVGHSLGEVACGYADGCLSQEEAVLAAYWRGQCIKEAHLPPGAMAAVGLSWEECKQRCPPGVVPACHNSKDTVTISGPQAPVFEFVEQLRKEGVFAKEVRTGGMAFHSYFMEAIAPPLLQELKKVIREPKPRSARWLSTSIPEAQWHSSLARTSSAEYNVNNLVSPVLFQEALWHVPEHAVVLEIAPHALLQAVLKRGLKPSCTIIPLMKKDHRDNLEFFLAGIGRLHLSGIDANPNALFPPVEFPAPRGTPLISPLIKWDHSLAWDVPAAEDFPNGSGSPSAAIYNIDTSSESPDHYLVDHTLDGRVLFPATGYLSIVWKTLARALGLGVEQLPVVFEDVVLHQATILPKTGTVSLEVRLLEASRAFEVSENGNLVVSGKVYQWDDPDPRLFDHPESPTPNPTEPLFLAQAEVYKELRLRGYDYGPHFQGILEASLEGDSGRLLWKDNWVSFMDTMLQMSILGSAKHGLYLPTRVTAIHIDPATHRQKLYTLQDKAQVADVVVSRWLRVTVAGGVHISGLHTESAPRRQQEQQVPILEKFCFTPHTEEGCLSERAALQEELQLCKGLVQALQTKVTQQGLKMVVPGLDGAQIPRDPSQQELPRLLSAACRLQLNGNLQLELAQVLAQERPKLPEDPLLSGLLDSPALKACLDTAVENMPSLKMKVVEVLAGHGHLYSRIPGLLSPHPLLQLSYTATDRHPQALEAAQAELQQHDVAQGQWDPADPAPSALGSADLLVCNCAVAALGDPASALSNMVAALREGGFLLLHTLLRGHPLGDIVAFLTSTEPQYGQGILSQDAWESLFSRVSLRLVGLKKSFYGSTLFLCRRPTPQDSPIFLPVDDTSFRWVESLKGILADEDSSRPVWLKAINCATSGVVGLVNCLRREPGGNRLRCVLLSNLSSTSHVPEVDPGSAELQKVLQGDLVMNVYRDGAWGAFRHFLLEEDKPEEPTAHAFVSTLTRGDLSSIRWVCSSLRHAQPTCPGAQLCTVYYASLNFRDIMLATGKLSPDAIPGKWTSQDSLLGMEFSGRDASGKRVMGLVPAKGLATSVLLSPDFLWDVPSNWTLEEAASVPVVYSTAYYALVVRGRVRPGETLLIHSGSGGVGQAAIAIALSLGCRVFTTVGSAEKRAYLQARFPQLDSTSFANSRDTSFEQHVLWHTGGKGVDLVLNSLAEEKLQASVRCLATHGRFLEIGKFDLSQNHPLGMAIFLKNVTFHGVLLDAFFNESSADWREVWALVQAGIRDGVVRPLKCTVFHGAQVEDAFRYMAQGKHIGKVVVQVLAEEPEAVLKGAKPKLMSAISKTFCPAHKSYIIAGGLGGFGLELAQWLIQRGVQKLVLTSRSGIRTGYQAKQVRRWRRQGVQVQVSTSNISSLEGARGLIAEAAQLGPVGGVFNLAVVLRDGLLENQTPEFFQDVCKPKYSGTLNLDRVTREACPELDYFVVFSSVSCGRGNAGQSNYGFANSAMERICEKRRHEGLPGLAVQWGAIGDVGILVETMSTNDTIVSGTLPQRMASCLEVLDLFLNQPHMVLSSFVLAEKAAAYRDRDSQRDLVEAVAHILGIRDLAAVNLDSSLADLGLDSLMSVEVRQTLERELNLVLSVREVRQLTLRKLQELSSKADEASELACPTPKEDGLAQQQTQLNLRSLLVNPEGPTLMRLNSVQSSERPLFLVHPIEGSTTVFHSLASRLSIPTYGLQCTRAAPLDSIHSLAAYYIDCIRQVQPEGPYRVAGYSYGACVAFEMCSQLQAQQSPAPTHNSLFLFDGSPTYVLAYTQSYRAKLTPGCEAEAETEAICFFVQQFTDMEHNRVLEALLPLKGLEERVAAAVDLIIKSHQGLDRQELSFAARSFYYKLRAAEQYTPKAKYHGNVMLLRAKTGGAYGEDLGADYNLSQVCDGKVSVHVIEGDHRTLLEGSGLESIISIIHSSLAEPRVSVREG
Chain of Induced myeloid leukemia cell differentiation protein Mcl-1 (Q07820 whole entry): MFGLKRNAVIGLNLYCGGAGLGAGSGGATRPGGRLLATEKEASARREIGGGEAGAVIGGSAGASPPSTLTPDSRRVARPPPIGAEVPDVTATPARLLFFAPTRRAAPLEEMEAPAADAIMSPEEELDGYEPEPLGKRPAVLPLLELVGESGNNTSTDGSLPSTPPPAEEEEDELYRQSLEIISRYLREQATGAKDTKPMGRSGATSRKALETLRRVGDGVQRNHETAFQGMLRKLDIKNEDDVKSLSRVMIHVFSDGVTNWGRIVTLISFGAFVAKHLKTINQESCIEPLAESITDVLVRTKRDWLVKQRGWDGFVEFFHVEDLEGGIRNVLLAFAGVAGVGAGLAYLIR
T8 sequence (P11940 whole entry): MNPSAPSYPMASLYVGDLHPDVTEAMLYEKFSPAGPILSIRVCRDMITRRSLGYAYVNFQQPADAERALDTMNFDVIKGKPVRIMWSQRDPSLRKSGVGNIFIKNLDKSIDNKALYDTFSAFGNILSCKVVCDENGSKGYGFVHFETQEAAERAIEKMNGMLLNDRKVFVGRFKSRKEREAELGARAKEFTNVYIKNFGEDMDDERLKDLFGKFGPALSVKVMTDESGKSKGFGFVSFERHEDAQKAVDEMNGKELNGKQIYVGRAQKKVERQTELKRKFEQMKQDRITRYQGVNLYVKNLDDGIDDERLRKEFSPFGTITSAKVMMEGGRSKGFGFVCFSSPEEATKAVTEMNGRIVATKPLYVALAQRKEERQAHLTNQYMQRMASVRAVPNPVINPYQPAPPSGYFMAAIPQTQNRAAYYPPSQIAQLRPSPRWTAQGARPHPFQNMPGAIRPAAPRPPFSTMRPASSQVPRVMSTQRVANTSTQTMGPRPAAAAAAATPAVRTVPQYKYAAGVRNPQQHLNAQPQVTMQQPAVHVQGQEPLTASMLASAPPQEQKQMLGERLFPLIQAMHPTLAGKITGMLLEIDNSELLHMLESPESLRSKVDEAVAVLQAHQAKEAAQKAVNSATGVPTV
Chain of Paired box protein Pax-8 (Q06710 whole entry): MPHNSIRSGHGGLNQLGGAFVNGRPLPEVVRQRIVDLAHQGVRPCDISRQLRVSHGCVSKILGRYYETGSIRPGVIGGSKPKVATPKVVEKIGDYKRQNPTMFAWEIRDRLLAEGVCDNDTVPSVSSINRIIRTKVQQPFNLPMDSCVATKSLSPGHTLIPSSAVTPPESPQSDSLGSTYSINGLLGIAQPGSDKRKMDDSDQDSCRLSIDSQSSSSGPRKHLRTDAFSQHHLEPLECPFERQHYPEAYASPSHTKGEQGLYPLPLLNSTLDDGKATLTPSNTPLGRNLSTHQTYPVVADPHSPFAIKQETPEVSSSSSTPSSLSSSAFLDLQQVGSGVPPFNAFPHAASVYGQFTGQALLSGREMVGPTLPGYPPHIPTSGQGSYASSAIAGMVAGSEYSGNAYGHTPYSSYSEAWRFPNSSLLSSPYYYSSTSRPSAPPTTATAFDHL
Chain of DNA dC->dU-editing enzyme APOBEC-3G (Q9HC16 whole entry): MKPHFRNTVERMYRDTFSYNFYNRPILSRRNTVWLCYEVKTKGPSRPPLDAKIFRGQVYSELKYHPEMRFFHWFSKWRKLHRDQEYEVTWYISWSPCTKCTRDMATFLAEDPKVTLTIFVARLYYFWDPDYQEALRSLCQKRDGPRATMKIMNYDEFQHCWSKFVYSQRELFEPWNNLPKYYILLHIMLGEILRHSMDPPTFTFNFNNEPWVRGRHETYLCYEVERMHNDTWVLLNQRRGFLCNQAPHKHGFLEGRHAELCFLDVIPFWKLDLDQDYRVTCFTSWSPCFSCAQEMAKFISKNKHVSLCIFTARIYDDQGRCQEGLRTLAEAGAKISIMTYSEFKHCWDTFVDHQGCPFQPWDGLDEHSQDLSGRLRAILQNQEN

COc1cccc(CN(C)C(=O)c2ccc(COc3ccc(Cl)cc3)cc2)c1OC
AC50 (HeLa): 54.8 µM (active)

Cc1cc(/C=C2\C(=O)NC(=O)N(c3ccc(Cl)cc3)C2=O)c(C)n1-c1cccc(C(=O)O)c1
EC50 [1]: 65.9 µM (active) | EC50 [2]: > 300 µM (not active) | IC50 [3]: 9.6 µM (active)

O=C(O)CC(Sc1nnc(S)s1)C(=O)O (configuration not stated)
IC50 [4]: 45.1 µM (active)

CCOC(=O)c1c(C)oc2c1c(C(c1ccncc1)N1CCOCC1)c(O)c1ccccc12 (configuration not stated)
IC50 [5]: 1.16 µM (active)

COc1ccc(NC(C)=O)cc1S(=O)(=O)Nc1ccccc1C(=O)NCCc1ccccc1
EC50 (H4): 50.7 µM (active) | AC50 (HeLa): 230 µM (active) | EC50 [6]: 0.519 µM (active)

Cc1ccc(-n2nc3ccc(NC(=O)C(C)C)cc3n2)cc1
AC50 (HeLa): 54.8 µM (active)

CCC(=O)N1[C@H](CN(C)C(C)=O)[C@H](c2ccc(-c3cccnc3)cc2)[C@@H]1CO
AC50 [7]: 0.561 µM (active)

COc1cc(SC)ccc1C(=O)N1CCN(c2ccccc2)CC1
IC50 [5]: < 0.4 µM (not active)

O=C(Nc1cccc([N+](=O)[O-])c1)N1CCc2ccccc2C1
IC50 (Fatty acid synthase [8]): 6.26 µM (active) | IC50 (Fatty acid synthase [9]): 8.71 µM (active)

O=c1c2ccccc2nnn1CSc1nc2sc3c(c2c(=O)n1CC1CCCO1)CCC3 (configuration not stated)
IC50 [10]: 15.8 µM (active)

COc1ccccc1-c1cnn2c(NC3CCCC3)cc(C)nc12
EC50 (H4): 16.2 µM (active) | AC50 (HeLa): 117 µM (active) | CC50 [11]: 40 µM (active) | EC50 [6]: 0.139 µM (active)

CN1c2ccc(-c3cccc(F)c3)cc2[C@@H]2[C@@H](CCN2C(=O)Cc2ccccc2)[C@@H]1CO
AC50 (Paired box protein Pax-8): 10.2 µM (active) | AC50 [12]: > 70 µM (inactive)

CSc1ccc2c(c1)C(N1CCN(C)CC1)Cc1ccccc1S2 (configuration not stated) [METHIOTHEPIN MESYLATE]
AC50 [13]: 18.7 µM (active) | IC50 [14]: > 20 µM (inactive)

CC1=C(C(=O)OCC(C)C)C(c2ccsc2)NC(=O)N1 (configuration not stated)
IC50 [5]: 2.4 µM (not active)

CC1(C(=O)NS(=O)(=O)c2ccc(C#N)cc2)CCN1C(=O)Cc1ccc(Cl)cc1Cl (configuration not stated)
IC50 (Fatty acid synthase [8]): 5.77 µM (active) | IC50 (Fatty acid synthase [9]): 10.1 µM (active)

C=CCn1c(O)c(N=NC(S)=Nc2ccccc2F)c2ccccc21
IC50 [15]: > 66 µM (inactive) | CC50 (Vero): 18.2 µM (active) | IC50 [16]: > 66 µM (inactive) | AC50 (HEK293): 2.88 µM (active) | EC50 [17]: 0.628 µM (active) | EC50 (Streptococcus): 1.08 µM (active)
